Results taken from US11773093B1, “N-(pyrimido[2,3-b]indol-7-yl)acetamide compounds as antibacterial agents” (KING FAISAL UNIVERSITY, priority 2023, dated 2023).
pIC50: −log10 of the molar value. Converted amounts (≈) assume the structure as drawn. Where two headings read alike, the source gives them in different places.

How the values were obtained:
[1] = tested on: Pseudomonas aeruginosa MTCC 741; test: In vitro antibacterial activity (MIC, CLSI M07-A10 dilution); assay type: cell-based; settings: MTCC741
[2] = tested on: Enterococcus faecium ATCC 51559 (VRE resistant); test: as above; assay type: cell-based
[3] = tested on: Bacillus subtilis MTCC 441; test: as above; assay type: cell-based; settings: MTCC441
[4] = tested on: Enterococcus faecium ATCC 35667; test: as above; assay type: cell-based; settings: ATCC35667
[5] = tested on: Klebsiella pneumonia MTCC 618; test: as above; assay type: cell-based; settings: Klebsiella pneumoniae, MTCC618
[6] = biological target: T1, DNA gyrase from E. coli (Escherichia coli, UniProt P0AES4+P0AES6); test: Inhibitory activities on E. coli DNA Gyrase (Inspiralis assay); assay type: biochemical
T1 construct: purchased Inspiralis
T1 sequence (P0AES4 whole entry, one chain of several): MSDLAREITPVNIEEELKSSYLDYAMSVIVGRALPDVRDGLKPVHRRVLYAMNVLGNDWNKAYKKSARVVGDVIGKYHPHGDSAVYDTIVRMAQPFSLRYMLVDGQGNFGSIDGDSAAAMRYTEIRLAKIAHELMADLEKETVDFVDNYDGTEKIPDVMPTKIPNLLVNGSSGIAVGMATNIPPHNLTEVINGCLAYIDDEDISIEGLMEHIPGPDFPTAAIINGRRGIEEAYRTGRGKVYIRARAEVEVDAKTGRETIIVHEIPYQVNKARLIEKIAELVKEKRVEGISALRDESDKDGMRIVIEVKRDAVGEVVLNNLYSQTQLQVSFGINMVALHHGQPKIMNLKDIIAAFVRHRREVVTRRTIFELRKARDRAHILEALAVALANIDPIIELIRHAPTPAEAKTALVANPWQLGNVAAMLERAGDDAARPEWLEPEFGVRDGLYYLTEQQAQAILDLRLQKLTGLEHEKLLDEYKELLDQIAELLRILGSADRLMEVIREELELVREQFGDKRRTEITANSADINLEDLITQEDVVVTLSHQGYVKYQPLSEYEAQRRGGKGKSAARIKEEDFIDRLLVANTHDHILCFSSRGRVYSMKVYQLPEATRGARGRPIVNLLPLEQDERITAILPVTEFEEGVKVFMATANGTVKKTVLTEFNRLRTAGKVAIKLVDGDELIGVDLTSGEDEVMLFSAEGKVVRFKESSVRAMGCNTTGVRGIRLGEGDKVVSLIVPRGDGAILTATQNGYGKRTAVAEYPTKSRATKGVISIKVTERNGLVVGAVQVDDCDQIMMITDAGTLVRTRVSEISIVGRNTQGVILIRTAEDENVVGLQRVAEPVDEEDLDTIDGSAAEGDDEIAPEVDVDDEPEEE
Method: Inhibitory potencies were investigated utilizing the Inspiralis assay on streptavidin-coated 96-well microtiter plates. First, the plates were rehydrated with buffer (20 mM Tris-HCl with pH 7.6, 0.01% w/v BSA, 0.05% v/v Tween 20, 137 mM NaCl) and the biotinylated oligonucleotide was then immobilized. After washing off the unbound oligonucleotide, the enzyme test was performed. The reaction volume of 30 μL in buffer (35 mM Tris×HCl with pH 7.5, 4 mM MgCl2, 24 mM KCl, 2 mM DTT, 1.8 mM spermidine, 1 mM ATP, 6.5% w/v glycerol, 0.1 mg/mL albumin) contained 1.5 U of DNA gyrase from E. coli, 0.75 μg of relaxed pNO1 plasmid, and 3 μL solution of the inhibitor in 10% DMSO and 0.008% Tween 20. Reaction solutions were incubated at 37° C. for 30 min. After that, the TF buffer (50 mM NaOAc with pH 5.0, 50 mM NaCl and 50 mM MgCl2) was added to terminate the enzymatic reaction. After additional incubation for 30 min at rt, during which biotinoligonucleotide-plasmid triplex was formed, the unbound plasmid was washed off using TF buffer and SybrGOLD in T10 buffer (10 mM Tris HCl with pH 8.0 and 1 mM EDTA) was added. The fluorescence was measured with a microplate reader (BioTek Synergy H4, excitation: 485 nm, emission: 535 nm). Initial screening was done at 100 or 10 μM concentration of inhibitors. […] GraphPad Prism software was used to calculate the IC50 values. […]

[7] = tested on: Escherichia coli MTCC 443; test: In vitro antibacterial activity (MIC, CLSI M07-A10 dilution); assay type: cell-based; settings: MTCC443
[8] = tested on: Staphylococcus epidermidis; test: as above; assay type: cell-based
[9] = tested on: Staphylococcus aureus ATCC BAA-1556 (MERSA resistant); test: as above; assay type: cell-based; settings: ATCCBAA1556
[10] = tested on: Staphylococcus aureus ATCC 29213; test: as above; assay type: cell-based; settings: ATCC29213
[11] = tested on: Mycobacterium tuberculosis H37Rv strain; test: Anti-tubercular properties, alamar blue microplate MIC; assay type: cell-based; settings: 168 h, M. tuberculosis H37Rv, seven days incubation at 37° C., read-out: anti-mycobacterial activity (MIC)

| Structure (SMILES) | MIC ([1]; Pseudomonas aeruginosa) [µg/mL] | MIC ([2]; Enterococcus faecium) [µg/mL] | MIC ([3]; Bacillus subtilis) [µg/mL] | MIC ([4]; Enterococcus faecium) [µg/mL] | MIC [5] [µg/mL] | pIC50 [6] | MIC [7] [µg/mL] | MIC ([1]; Pseudomonas aeruginosa MTCC 741, read-out: MIC) [µg/mL] | MIC [8] [µg/mL] | MIC [9] [µg/mL] | MIC ([2]; Enterococcus faecium ATCC 51559 (VRE resistant), read-out: MIC) [µg/mL] | MIC [10] [µg/mL] | MIC ([3]; Bacillus subtilis MTCC 441, read-out: MIC) [µg/mL] | MIC ([4]; Enterococcus faecium ATCC 35667, read-out: MIC) [µg/mL] | MIC [11] [µg/mL] | MIC ([5]; Klebsiella pneumonia MTCC 618, read-out: MIC) [µg/mL] |
| --- | --- | --- | --- | --- | --- | --- | --- | --- | --- | --- | --- | --- | --- | --- | --- | --- |
| CN[C@H](CC(C)C)C(=O)N[C@H]1C(=O)N[C@@H](CC(N)=O)C(=O)N[C@H]2C(=O)N[C@H]3C(=O)N[C@H](C(=O)N[C@H](C(=O)O)c4cc(O)cc(O)c4-c4cc3ccc4O)[C@H](O)c3ccc(c(Cl)c3)Oc3cc2cc(c3O[C@@H]2O[C@H](CO)[C@@H](O)[C@H](O)[C@H]2O[C@H]2C[C@](C)(N)[C@H](O)[C@H](C)O2)Oc2ccc(cc2Cl)[C@H]1O [Vancomycin, reference compound] | > 128 | > 128 | 0.5 (≈ 0.345 µM) | 0.5 (≈ 0.345 µM) | > 128 | – | – | – | – | – | – | – | – | – | – | – |
| CC(=O)Nc1ccc2c(c1)[nH]c1nccc(Nc3ccc(C(=O)O)cc3)c12 [Example 8, 4-((7-acetamido-9H-pyrido[2,3-b]indol-4-yl)amino)benzoic acid] | – | – | – | – | – | 6.90 | 1 (≈ 2.77 µM) | 0.25 (≈ 0.694 µM) | 0.25 (≈ 0.694 µM) | 4 (≈ 11.1 µM) | 1 (≈ 2.77 µM) | 0.25 (≈ 0.694 µM) | 0.25 (≈ 0.694 µM) | 0.5 (≈ 1.39 µM) | 8 (≈ 22.2 µM) | 1 (≈ 2.77 µM) |
